# Source: US10935541B2 (priority 2014, dated 2021)
# “Also recorded” adds a separate entry of the source. Read-outs that look alike come from different tables or passages of the source.
# Columns and labels:
# [1] = test system: co-cultures of primary rat muscle cells and motoneurons; format: cell-based; conditions: for average contraction frequency: co-culture 13 days in vitro, n=10, spontaneous 1.4 Hz; for contractile force (average peak force): mean ± SEM
# Procedure: (§1) Myotube contraction was recorded and characterized via measurement of cantilever deflection using an automated system. In this system, cantilevers supporting co-cultured myotubes and motoneurons were inserted into a transparent culture dish fitted into a modified upright Olympus BX51WI electrophysiology microscope. The culture dish was filled with NBActiv4 medium (+10 mM HEPES) to maintain the cells during the analysis. A heated culture dish system (Delta T, Bioptechs, Butler, Pa.) was incorporated into the stage to maintain the culture at 37° C. throughout the analysis.
# The automated system consisted of a Helium Neon laser beam that was automatically scanned across the tips of each cantilever at a 30° angle relative to the plane of the cantilever. A quadrant photo-detector module was also moved to detect the reflected beam. Four stepper motor-driven linear actuators attached to XY translational stages controlled the positions of the laser and photo-detector, with each unit mounted to an XY stage and requiring an actuator for the X and Y translation directions. A temperature-controlled stage was incorporated into the unit to maintain the cells at physiological temperature. Stainless steel electrodes were mounted inside the stage dish at a separation distance of 15 mm. To allow the system to produce field stimulation of myotubes when appropriate, the electrodes were connected to a pulse generator (A-M systems, Sequim, Wash.), which was capable of producing field stimulation pulses of varying intensity, frequency, and waveform.
# (§2) Broad field electrical stimulation was first used to verify the contractile ability of the cultured myotubes. Cultures were subjected to a 3 V, 40 ms pulse at a frequency of 1 Hz, and the cantilevers were scanned for 5 seconds each to identify those with active myotubes. Across all experimental conditions, a successful contractile response was taken as any peak equal to or larger than 0.1 V.
# (§3) The electrical stimulus was then switched off and the active cantilevers scanned again in order to observe the rate of spontaneous contraction. This condition was followed by bath application of 200 μM glutamate to stimulate motoneuron firing, and the cantilevers were again scanned for evidence of contractile activity. A second application of glutamate was made following addition of 12.5 μM D-tubocurarine (Sigma-Aldrich) to block neuromuscular transmission. The cantilevers were again scanned for contractile activity following this treatment. Finally, cantilevers were subjected to the same broad-field electrical stimulation as was used initially and scanned for contractile activity to verify that the treatments had not destroyed the contractile capability of the myotube or caused the cells to detach.
# (§4) Conversion of photo-detector readings to cantilever deflection and myotube force were performed using a modified Stoney's equation (Wilson et al., 2010). Briefly, the photo-detector measured the changes in cantilever bending-induced laser deflection (reported in Volts) from which the deflection of the cantilever tip was calculated. Equations (1) and (2) are restated equations (see, e.g., Wilson et al., 2010) for cantilever tip deflection (δ) and stress produced by the myotube, assuming a uniform thick film the full width of the cantilever (σc). The system parameters used in these equations were the system-specific coefficient relating voltage to laser position on the photo-detector (Cdetector), the angle of the laser and detector relative to the plane of the cantilever (A), the elastic modulus of silicon (ESi), the thicknesses of the cantilever (tSi) and myotube (tf), poison's ratio of silicon (vSi), cantilever length (L), path length of laser from cantilever tip to detector (P), and the width of the cantilever (wsi).
# (§5) Differences in force per contraction and in contraction frequency were measured for the three conditions: (i) Spontaneous activity, (ii) 200 μM glutamate, and (iii) 12.5 μM D-tubocurarine following glutamate. […]
# [2] = test system: myotubes from muscle-only cultures; format: cell-based, rat
# Procedure: Muscle-only control cultures were established in parallel to all co-cultures examined. These cultures were subjected to identical culture parameters minus the plating of ventral horn cells after 7 days in vitro.
# as §1, §2, §3, §4
# as §5, with “glutamate. The differences were evaluated statistically using one-way repeated measures ANOVA (α=0.05) both for the muscle-only controls and for the motoneuron-myotube co-cultures.” for “glutamate.”
# ventral horn motoneurons = assay: Whole-cell patch-clamp recording of cultured motoneurons, response to glutamate; format: cell-based, rat
# Source text: After 11-13 days in vitro, electrophysiological properties of ventral horn motoneurons were investigated using whole-cell patch-clamp recording techniques. Glass coverslips with cultured ventral horn cells were transferred to a recording chamber located on the stage of a Zeiss Axioscope 2FS Plus upright microscope. Motoneurons were identified visually under an infrared differential interference contrast (DIC) video-microscope. The largest multipolar cells (15-20 μm diameters) with bright somas were identified as motoneurons. Borosilicate glass patch pipettes (BF 150-86-10; Sutter Instrument Company) with a resistance of 6-10 MΩ were made using a Sutter P97 pipette puller (Sutter Instrument Company). Current-clamp and voltage-clamp recordings were made using a Multiclamp 700 A amplifier (Axon instruments). The pipette (intracellular) solution contained 1 mM EGTA, 140 mM K-gluconate, 2 mM MgCl2, 2 mM Na2ATP and 10 mM HEPES (pH 7.2). NBActiv4 medium plus 10 mM HEPES (pH 7.2) was used as the extracellular solution.
# After the formation of a giga-ohm seal and membrane puncture, the cell capacitance was compensated. Signals were filtered at 3 kHz and sampled at 20 kHz using a Digidata 1322A interface (Axon Instruments). Data recording and analysis were performed with pClamp8 software (Axon Instruments). Membrane potentials were corrected by subtraction of a 15 mV tip potential, which was calculated using Axon's pClamp8 program. Depolarization-evoked inward and outward currents were examined in voltage-clamp mode. Depolarization-evoked action potentials were examined in current-clamp mode and induced using 1 second depolarizing current injections from a −70 mV holding potential. Action potentials elicited in response to 200 μM glutamate (an excitatory neurotransmitter) (Sigma-Aldrich) injection into the extracellular solution were likewise measured in current-clamp mode from a −70 mV holding potential.
# Patch-clamp recordings verified the ability of the co-culture protocol to promote the maturation of electrically-active motoneurons after 11-13 days in culture. […]
# neuromuscular junction = format: cell-based
compound,measurement,setting,value
COc1cc2c3cc1Oc1cc(ccc1O)C[C@@H]1c4c(cc(OC)c(O)c4Oc4ccc(cc4)C[C@@H]3N(C)CC2)CC[N+]1(C)C [D-tubocurarine],average contraction frequency,[1]; 12.5 μM D-tubocurarine with glutamate,1.4 Hz
same,contractile force compared with force in response to glutamate,"[1]; 12.5 μM D-tubocurarine, co-culture",not significantly different
same,contractile force (average peak force),"[1]; after addition of 12.5 μM D-tubocurarine, co-culture",45.1 nN
same,effect on glutamate-increased contraction frequency,[1]; all cases of glutamate increasing contraction frequency by at least 2 Hz,returned the contraction frequency to spontaneous levels
same,inhibitory effect on myotube contraction,"[2]; 12.5 μM D-tubocurarine, all control cases",no inhibitory effect on myotube contraction
same,contraction frequency compared with frequency in response to glutamate,"[2]; 12.5 μM D-tubocurarine, muscle-only controls, p=0.04",significant increase in contraction frequency
N[C@@H](CCC(=O)O)C(=O)O [glutamate],duration of motoneuron activity in response to glutamate,ventral horn motoneurons; 200 μM glutamate bath application,roughly 2.5 minutes
same,"response of motoneurons to bath application (membrane depolarization, action potentials)","ventral horn motoneurons; 200 μM glutamate, gap-free current-clamp, -70 mV holding potential, n=17",depolarization of the membrane and elicited action potentials in all motoneurons examined
same,response of patched motoneurons to a second application,"ventral horn motoneurons; second application of glutamate, n=3",again depolarized the motoneuron membrane in all cells examined
same,average contraction frequency,[1]; 200 μM glutamate,4.9 Hz
same,effect on force generated by contracting myotubes,"[1]; glutamate, co-culture, n=10, p=0.60",no significant effect
same,contractile force (average peak force),"[1]; glutamate-evoked contractions, 200 μM, co-culture, spontaneous 106.0 nN",67.4 nN
same,largest increase in contraction frequency in response to glutamate,"[2]; 200 μM glutamate, muscle-only controls",0.85 Hz
same,effect on contraction frequency,"[2]; 200 μM glutamate, muscle-only cultures, n=10",did not significantly alter contraction frequency
same,effect on force generated by contracting myotubes,"[2]; glutamate, muscle-only controls, n=7, p=0.24",no effect
α-Bungarotoxin,"effect on myotube contractions, stimulation from first chamber (myotube side)",neuromuscular junction,did not inhibit contraction; also recorded: contractions are still possible
same,"effect on myotube contractions, stimulation from second chamber (motoneuron side)",neuromuscular junction,less and less responsive; also recorded: decreased contraction of the myotubes
